Test results reported in patent publication US8354499B2, “Cyanine-based probe\tag-peptide pair fluorescence protein imaging and fluorescence protein imaging methods” (Battelle Memorial Institute, priority 2007, dated 2013).

Columns and labels:
[1] = depending on binding peptide; cited from earlier work
[2] = system: tagged MLCK peptide (calmodulin binding peptide of myosin light chain kinase with SEQ ID NO. 2 tag on the C-terminus); assay: Fluorescence titration of the formula (I) probe with tagged MLCK peptide; settings: titration of tagged MLCK peptide into probe solution, FIG. 2
Source text: For the present study, a tagged peptide was created utilizing the calmodulin binding peptide of the myosin light chain kinase (MLCK) having SEQ ID NO. 2 engineered onto the C-terminus (henceforth tagged MLCK peptide). To determine the binding affinity of the probe to the tag, the tagged MLCK peptide was titrated into a solution containing a probe having formula (I). […] This corresponds to peak molar binding in the absence of ethanedithiol.

Non-tagged MLCK peptide = assay: Control titration of the probe with non-tagged MLCK peptide; format: binding; settings: FIG. 2 circles
[3] = system: peptide-tag (SEQ ID NO. 2) versus FlAsH tag (SEQ ID NO. 3); assay: Single-pot selective labeling / FRET study, tagged MLCK peptide and FlAsH-tag calmodulin; format: binding
Protocol: Fluorescent resonance energy transfer (FRET) studies were also performed. Calmodulin which is known to bind MLCK in a 1:1 ratio in the presence of calcium was covalently linked to a FlAsH-tag having sequence CysCysProGlyCysCys (SEQ ID NO. 3). SEQ ID NO. 2 was utilized to label the MLCK peptide as described above.

[4] = Absorbance, emission and photophysical properties of free and tag-bound probe; format: physicochemical
Source text: In addition to NMR, the synthesized probe of formula (I) was characterized by determining the absorbance and emission spectra, as presented in FIG. 1. The free probe has an absorbance maximum at 560 nm and an emission maximum at 568 nm.
The spectra of FIG. 1 are normalized to the probe/tagged MLCK peptide pair.
The tag bound probe has a quantum yield of 0.28.

Structure (SMILES) | brightness (reported) [1] | increase of probe fluorescence upon addition of tagged peptide [2] [fold] | fluorescence change on titration with non-tagged MLCK peptide (Non-tagged MLCK peptide) | preference for binding of the peptide-tag over FlAsH tag ([3]; single pot labeling with FlAsH and formula (I), FRET results) | FRET between FlAsH labeled calmodulin and formula (I) labeled tagged MLCK peptide ([3]; titration with 0.1-1 μM labeled peptide, FIG. 3) | extinction coefficient [4] | absorbance maximum ([4]; free probe) [nm] | emission maximum ([4]; free probe) [nm] | lifetime under photo bleaching conditions ([4]; peptide bound probe, relative to FlAsH) | fluorescence emission maximum ([4]; probe bound to peptide tag (red-shift)) [nm] | brightness relative to FlAsH and ReAsH ([4]; tag bound probe) | quantum yield ([4]; tag bound probe)
O=C(O)c1ccccc1-c1c2ccc(=O)c([As]3SCCS3)c-2oc2c([As]3SCCS3)c(O)ccc12 [FlAsH] | 41-60 |  |  |  |  |  |  |  |  |  |  | 
CC1(C)C(/C=C/C=C2/N(CCCCS(=O)(=O)O)c3ccc([As]4SCCS4)cc3C2(C)C)=[N+](CCCCS(=O)(=O)[O-])c2ccc([As]3SCCS3)cc21 [formula (I)] |  | 5.8 | no increase in fluorescence | 85/15 | FRET was observed in proportion to labeling | 180,000 | 560 | 568 | three times longer than that of FlAsH | 576 | considerably higher than ReAsH | 0.28
